Data published in PubChem BioAssay (NCI).
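Tested at 5 concentrations; 48 h exposure; 96-well plates; endpoints linearly interpolated, else capped at highest concentration. GI50: concentration for 50% inhibition of growth. TGI: total growth inhibition.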 Activity calls are given as the source filed them. Cut-off read from the data, not from the text of the source: active = GI50 below about 0.43 µM; inactive = the rest.

Tested on: MDA-MB-468 breast
Test: NCI anticancer screen, dose series, 48 h

Compound	GI50	TGI	outcome
CCOC(=O)C(Cc1ccc(N(CCCl)CCCl)cc1)NC(=O)C(CC(C)C)NC(C)=O (stereo unspecified)	0.426 µM	2.18 µM	–
CCCCCCn1c(=N)n(CC(O)COc2cccc(C)c2)c2ccccc21 (stereo unspecified)	1.71 µM	3.54 µM	–
CC(CCC/C=C/CCCN(C)C(=N)N)CC(C)C1OC(=O)C(C)C(O)/C=C/C(C)C(O)C(C)C(O)C(C)C(O)CCCC(O)CC2(O)OC(CC(OC(=O)CC(=O)O)CC(O)CC(O)C(C)C(O)/C=C/C=C/C1C)CC(O)C2O (stereo unspecified)	1.77 µM	3.29 µM	inactive
COc1ccc(/C(C)=C(\c2ccc(Cl)cc2)c2ccc(OCCN3CCCCC3)cc2)cc1F	2.49 µM	5.62 µM	–
Oc1c(Br)cc(Br)c2cccnc12	2.43 µM	7.53 µM	–
Cn1cc(C2=C(c3cn(CCCSC(=N)N)c4ccccc34)C(=O)NC2=O)c2ccccc21	0.569 µM	1.9 µM	–
CCC(CC)N1C(=O)/C(=c2\sc3n(c2=O)C2C(NN=3)N(CC)C(=O)N2CC)c2ccccc21 (stereo unspecified)	0.489 µM	27 µM	–
CC(=O)OC1C(OC/C2=C/C3[C@@H](C(C)C)CC=C(C)[C@@H]3CC(OC(=O)/C=C/c3cn(C)cn3)[C@]3(C)C=C[C@@]2(O)O3)OCC(O)C1O (stereo partly specified)	0.0108 µM	0.0988 µM	–
O=C1/C(=C/c2ccc([N+](=O)[O-])s2)Oc2ccc(Cl)cc21	0.44 µM	1.56 µM	–
CCCCc1ccc(C(N)=O)nc1	> 100 µM	> 100 µM	–
CN(C)CCCn1c2c(c3ccncc3c1=O)C(=O)c1ccccc1-2	0.461 µM	3.02 µM	–
CCOC(=O)c1ccccc1NC(c1ccccc1)c1ccc2cccnc2c1O (stereo unspecified)	2.45 µM	6.86 µM	–
CC1SC(c2cccc(Oc3ccccc3)c2)N(CCc2cccs2)C1=O (stereo unspecified)	0.745 µM	2.91 µM	–
CN1CCN(Cc2ccc(NC(=O)c3cncc(C#Cc4c(N)ncc5ccc(F)cc45)c3)cc2C(F)(F)F)CC1	4.19 µM	12.3 µM	–
CCN(CC)CCCC(C)NC(=S)N/N=C(\C)c1ccccn1 (stereo unspecified)	1.89 µM	5.65 µM	–
Cc1cc(F)cc(NS(=O)(=O)c2ccc(-c3cnc(C4CC4)o3)cc2)c1	0.079 µM	2.42 µM	–
O=C(/C=C\c1ccc(Cl)c(Cl)c1)c1ccccc1	14.3 µM	36.9 µM	–
CCN(CC)CCC(CNc1c2ccc(Cl)cc2nc2ccc(OC)cc12)c1ccccc1 (stereo unspecified)	1.57 µM	3.01 µM	–
Cc1nn(-c2ccccc2)c2ncc3c(c12)C(=O)N(Cc1ccccc1)C3=O	9.21 µM	> 100 µM	–
COc1c(C)cnc(Cn2cnc3c(Cl)nc(N)nc32)c1C	0.169 µM	1.53 µM	–

Compound	GI50	TGI	outcome
COc1cc2c(cc1Nc1nc(Nc3ccsc3C(N)=O)c3cc[nH]c3n1)N(C(=O)CN(C)C)CCC2	0.0827 µM	0.947 µM	–
N#CC1=C(N)Oc2c(ccc3ccccc23)C1c1ccccc1Cl (stereo unspecified)	0.466 µM	20.7 µM	–
Oc1ccc(-c2nc(-c3ccc4oc5ccc(-c6[nH]c(-c7ccc(O)cc7)nc6-c6ccccc6)cc5c4c3)c(-c3ccccc3)[nH]2)cc1	6.65 µM	88.5 µM	–
COC(=O)[C@@H](C)C[C@H](Cc1ccccc1)NC(=O)c1cccc([C@@H](C[C@H](C(C)C)N(C)C(=O)[C@@H](NC(=O)[C@H]2CCCCN2C)C(C)C)OC(C)=O)n1	< 0.00167 µM	0.143 µM	–
COc1ccc(C2CC(c3ccc(OC)c(OC)c3)=NN2C(=O)c2cc(OC)c(OC)c(OC)c2)cc1 (stereo unspecified)	0.575 µM	5.21 µM	–
C#Cc1cccc(NC(=O)Nc2cccc(NC(=O)CCl)c2)c1	19.4 µM	78.7 µM	–
CCS(=O)(=O)Nc1ccc(Oc2ccc(F)cc2F)c(-c2cn(C)c(=O)c3[nH]ccc23)c1	0.0512 µM	5.01 µM	–
Cc1nc2cc(NC(=O)CN3CCN(CCN4C(=O)c5cccc6cccc(c56)C4=O)CC3)ccc2s1	3.63 µM	16.6 µM	–
Cn1cnc2nc(Cl)nc(Cl)c21	3.68 µM	18.7 µM	–
COc1ccc(N2CCN(CC(=O)N3CCN(c4nnc(-c5ccc(Cl)cc5)c(-c5ccc(Cl)cc5)n4)CC3)CC2)cc1	11.5 µM	45.5 µM	–
Cc1cc(N2CCOCC2)nc(N(CCNc2ccnc3cc(Cl)ccc23)Cc2cccs2)n1	2.11 µM	5.08 µM	–
COc1cc(C2C3=C(COC3=O)N(CCO)c3cc4c(cc32)CCC4)cc(OC)c1OC (stereo unspecified)	0.0617 µM	0.151 µM	–
CNCc1ccc(C)c(NC(=O)c2ccc(Nc3nc(-c4ccccc4)c4ccccc4n3)cc2)c1	1.61 µM	3.13 µM	–
C=CC(=O)N1CC[C@@H](Oc2nc(Nc3ccc(N4CCC(N5CCN(C)CC5)CC4)cc3)c(C(N)=O)nc2CC)C1	> 100 µM	> 100 µM	–
Cc1cccc(NC(=O)c2sc3nc4c(cc3c2N)CCC4)c1C	0.196 µM	0.685 µM	–
COc1ccc(/C=C2\CN(Cc3cn(CCCNc4ccnc5cc(Cl)ccc45)nn3)C/C(=C\c3ccc(OC)cc3)C2=O)cc1	11.9 µM	26.2 µM	–
COc1ccc(C2CC(c3cccc(Nc4ccnc5cc(Cl)ccc45)c3)=NN2c2ccc(Cl)cc2)cc1 (stereo unspecified)	4.45 µM	40.3 µM	–
C=C1C(=O)O[C@H]2[C@H]1CC/C(Cn1cc(CNC(=O)c3cc4ccccc4[nH]3)nn1)=C\CC[C@@]1(C)O[C@@H]21	1.45 µM	3.66 µM	–
Cn1c([N+](=O)[O-])cnc1/C=C1\Oc2ccc(Cl)cc2C1=O	1.92 µM	4.79 µM	–
O=C(/C=C/CN1CCCCC1)Nc1cc2c(Nc3ccc(F)c(Cl)c3F)ncnc2cc1OCCOC(F)F	< 0.01 µM	0.0118 µM	–
